In ChEMBL document CHEMBL1129017, “Chemical feasibility studies of a potential coumarin-based prodrug system” (Bioorg Med Chem Lett, 1996):

Assay: Compound was evaluated for its half life period.
Assay type: ADME

SMILES | half-life [min]
CC(=O)Oc1ccccc1/C=C\C(=O)NCc1ccccc1 | 16.3
COc1ccc(NC(=O)/C=C\c2ccccc2OC(C)=O)cc1 | 1.63
CC(=O)Oc1ccccc1/C=C\C(=O)N(C)Cc1ccccc1 | 31.2
